Experiment [1] relates to human umbilical vein endothelial cell line (ECV304). The experiment in a line: MTT in vitro cell inhibition. In kind it is cell-based. The conditions noted are these: 3 days. The text has this: (§1) An effective amount of the above compounds and/or the compositions containing the same used as an active ingredient have an effect on inhibiting the tumor cells. The present invention detects the inhibitory effect of the hydroxy-substituted benzophenone compounds on the proliferation of the in vitro cultured human tumor cells by the methylthiazolyl tetrazolium method.
(§2) The method is used to detect cell viability. […] Particles can be dissolved by dimethyl sulfoxide (DMSO) isopropyl alcohol or 10% acidified SDS (sodium dodecyl sulfate), and a microplate reader is used to measure the OD value at A570 wavelength, which indirectly reflects the number of live cells. The method is used for detection of the cytokines bioactivity, as well as anti-tumor drugs and tumor radiosensitivity and cytotoxicity test, and has the characteristics of being simple, fast, economical, sensitive and accurate and having good reproducibility and no need to use radionuclides. This method has been widely used in screening preclinical anticancer drugs and detecting the drug sensitivity of fresh tumor cells. The method is as below:
(§3) (1) The tumor cell suspension prepared by 0.25% of trypsin digestion and adjusted to a cell concentration of 10^5/ml with RPMI1640 containing 10% fetal calf serum is added to a 96-well plate with 100 μl for each well, cultured 24 hours, and then different dosages of drugs are added with 100 μl/well, for which, the negative control groups, positive control groups and withering wells are set, and 4 parallel wells are set for each group.
(§4) (2) They are continually cultured in incubator containing 5% of CO2 at 37° C. for 24 to 48 hours. MTT solution (5 g/L) is added to each well before the termination of the experiment. The OD value at A570 nm is detected by microplate reader. The OD value at A570 of the negative group without the addition of drugs is taken as a control. The cell survival rate and cell inhibition rate of drugs are calculated according to the following formula: Cell survival rate=(OD value of test group/OD value of control group)×100% Cell inhibition rate (%)=(OD value of the control group−OD value of the test group/(OD value of the control group−OD value of the blank group)
(§5) 1. Tumor cell lines: human glioma cell line (U251), human colon cancer cell line (LOVO), human hepatoma cell line (HepG2), human lung cancer cell line (PC84045), human endometrial carcinoma cell line (JEC), human renal carcinoma (GRC), human gastric cancer cell line (MCG804), human cervical cancer cell line (HeLa), human hepatocellular carcinoma cell line (BEL-7402) and human umbilical vein endothelial cell line (ECV304) purchased from Animal Experimental Center of Zhongshan Medical College, and preserved by the present laboratory.
(§6) The tumor cell lines are cultured in RPMI-1640 medium containing 15% of the newborn bovine serum in a conventional manner, placed in the humidification incubator containing 5% of CO2 for being cultured at 37° C., and are observed for growth by an inverted microscope. A subculture is conducted every about 3-5 days, the cells in logarithmic growth phase are adopted to be digested with 0.25% of trypsin, and the serum-free RPMI-1640 medium is used for culturing the cell suspension; the blood counting plate makes counting, the trypan blue exclusion tests the cell activity, and the cell viability>95% is used for formal tests.
(§7) Liquid preparation: the compounds are labeled with the codes respectively, DMSO is used to dissolve each compound, the bacterial filter is used to remove bacteria, and each compound is prepared into 10^−4 g/ml, 10^−5 g/ml, 10^−6 g/ml and preserved at 4° C. for use. […]

In a further experiment the test system is MCF7. As to the kind of experiment: MTT in vitro tumor cell inhibition. In kind it is cell-based. The note with it: 3 days.
Text: as §1, §2, §3, §4, §6
Liquid preparation: the compounds are labeled with the codes respectively, DMSO is used to dissolve each compound, the bacterial filter is used to remove bacteria, and each compound is prepared into 10^−4 g/ml, 10^−5 g/ml, 10^−6 g/ml and preserved at 4° C. for use.
MTT method: a bottle of 4-5 days old cells in the exponential growth phase are adopted to be cultured, and added with an appropriate amount of Trypsin-EDTA solution, so as to enable the adherent cells to fall off, and are prepared with 10 ml of RPMI-1640 medium containing 15% newborn bovine serum into suspensions; after stained with trypan blue, the cell number is counted on the blood counting plate to ensure that the live cells is more than 97%; the cell suspensions are diluted by the complete medium so that each […] of solution contains 5000-400000 cells; the 96-well plate is used with 200 μl of cell suspensions added into each. The 96-well plate is placed at 37° C. in 5% of CO2 containing incubator for 24 hours; the test compounds are diluted at 3 dilutions with 5 wells in parallel for each concentration; the serum-free RPMI1640 is used as the control group. […]

The test system of experiment [2] is human glioma cell line (U251). The experiment in a line: MTT in vitro tumor cell inhibition. In kind it is cell-based. The note with it: 3 days.
Text: as §1, §2, §3, §4, §5, §6, §7

Experiment [3] deals with human gastric cancer cell line (MCG804). As to the kind of experiment: MTT in vitro tumor cell inhibition. In kind it is cell-based. The note with it: 3 days.
Text: as §1, §2, §3, §4, §5, §6, §7

In experiment [4] the test system is human lung cancer cell line (PC84045). As to the kind of experiment: MTT in vitro tumor cell inhibition. Type of experiment: cell-based. The conditions noted are these: 3 days.
Text: as §1, §2, §3, §4, §5, §6, §7

Experiment [5] deals with human cervical cancer cell line (HeLa). As to the kind of experiment: MTT in vitro tumor cell inhibition. In kind it is cell-based. The conditions noted are these: 3 days.
Text: as §1, §2, §3, §4, §5, §6, §7

Experiment [6] relates to human colon cancer cell line (LOVO). The experiment in a line: MTT in vitro tumor cell inhibition. In kind it is cell-based. The conditions noted are these: 3 days; for Inhibitory rate %: 10^−4 g/ml.
Text: as §1, §2, §3, §4, §5, §6, §7

Experiment [7] relates to human endometrial carcinoma cell line (JEC). As to the kind of experiment: MTT in vitro tumor cell inhibition. In kind it is cell-based. The conditions noted are these: 3 days.
Text: as §1, §2, §3, §4, §5, §6, §7

The subject of experiment [8] is human hepatoma cell line (HepG2). The experiment in a line: MTT in vitro tumor cell inhibition. The conditions noted are these: 3 days. In kind it is cell-based.
Text: as §1, §2, §3, §4, §5, §6, §7

For another experiment, the system named is HPV16/18. The experiment in a line: HPV detection via fluorescence quantitative PCR in genital warts tissue homogenate. On the set-up: species or system human papillomavirus. The conditions noted are these: genital warts tissue homogenate, 37° C., 24 hours, FQ-PCR. The text has this: (§8) The aforesaid compounds and/or compositions containing the same are effective in killing and inhibiting HPV type 6/11 and type 16/18, which can be used for the preparation of drugs for preventing and treating viral infection of HPV, preventing and treating genital warts, flat warts, common warts, vaginitis, cervicitis and cervical erosion, cervical cancer, esophageal cancer and other cancers caused by HPV. The present invention observes the effect of active ingredients and products by the detection of the change in the amount of the HPV virus through the real-time quantitative PCR. Such method has been applied in several publications (Youling C A I, et al., Chinese STD/AIDS, 2002, 8: 2,108; Yuansheng W U, Ruijiang F A N, et al., Practical Application of Integrated Chinese and Western Medicine in Clinics, 2003, 3: 2,1).
(§9) The microemulsion obtained in example 1 is used as a test sample and saline for blank control.
(§10) The standard clinical genital warts specimens from a variety of patients after being cut off are washed with saline for removing bloods, and are cut into pieces under aseptic conditions, added with saline in 3 times of their volumes to be uniformly mixed, grinded into homogenate and placed at −40° C. for use.
(§11) Each test sample drug microemulsion and the saline of 50 μl for each are respectively added with 50 μl the genital warts tissue homogenate, and incubated at 37° C. for 24 hours; tests are performed according to the operation procedure provided by the HPV6, 11 and 16, 18 type FQ-PCR diagnostic kits provided by Da'an Gene Diagnostic Center. 0.2 ml of DNA extracted by the conventional alkaline lysis method is put into the thin-walled reaction tube, and simultaneously added with primers, F-PROBE, DNTP, DNA polymerase, buffers and the like in a certain concentration; ABI PRISM™ 7700 fluorescence quantitative PCR amplifier is used to repeat 40 circulations each with 45 s at 93° C. and 120 s at 55° C. after predegeneration at 93° C. for 2 mins; the quantitative results are automatically analyzed by the computer software to calculate the quantitative results of the initial copy number. The data are shown in Table 2 (completed by Da'an Gene Clinical Test Center).

For another experiment, the system named is HPV 6/11 Virus. Described as above. Further details: species or system human papillomavirus. The conditions noted are these: genital warts tissue homogenate, 37° C., 24 hours, FQ-PCR.
Text: as §8, §9, §10, §11

Take `O=C(c1ccc(O)c(O)c1)c1cc(O)c(O)c(O)c1O` [2,3,3′,4,4′,5-hexahydroxybenzophenone]: the Inhibitory rate % is reported as 70.81% in experiment [1] (ECV304, 10^−4 g/ml); 43.47% in experiment [1] (ECV304, 10^−5 g/ml); 65.36% with MCF7 (MCF7, 10^−4 g/ml); 64.27% in [2] (U251, 10^−4 g/ml); 71.91% in experiment [3] (MCG804, 10^−4 g/ml); 80.43% in experiment [4] (PC84045, 10^−4 g/ml). The Inhibitory rate % in experiment [4] (PC84045, 10^−5 g/ml) came to 70.86%; in [4] (PC84045, 10^−6 g/ml), 41.369%; in [5] (10^−4 g/ml) it was 58.94%; in [6] it was 75.61%; in [7] (10^−4 g/ml) it was 79.84%; in [7] (10^−5 g/ml), 32.36%. For the same molecule, the Inhibitory rate % in experiment [8] (HepG2, 10^−4 g/ml) is 77.03%; in [8] (HepG2, 10^−5 g/ml), 55.49%. Moreover, the “Inhibitory rate, sensitivity class” value is “insensitive (<30% means insensitive)” in experiment [1] (ECV304, 10^−6 g/ml); “insensitive (<30% means insensitive)” in the experiment on MCF7 (MCF7, 10^−5 g/ml); “insensitive (<30% means insensitive)” in the experiment on MCF7 (MCF7, 10^−6 g/ml); “insensitive (<30% means insensitive)” in [2] (U251, 10^−5 g/ml); “insensitive (<30% means insensitive)” in experiment [2] (U251, 10^−6 g/ml); “insensitive (<30% means insensitive)” in [3] (MCG804, 10^−5 g/ml). The “Inhibitory rate, sensitivity class” value in [3] (MCG804, 10^−6 g/ml) was “insensitive (<30% means insensitive)”; in experiment [5] (10^−5 g/ml), “insensitive (<30% means insensitive)”; in experiment [5] (10^−6 g/ml), “insensitive (<30% means insensitive)”; in [6] (10^−5 g/ml), “insensitive (<30% means insensitive)”; in experiment [6] (10^−6 g/ml), “insensitive (<30% means insensitive)”; in [7] (10^−6 g/ml), “insensitive (<30% means insensitive)”. Further, in experiment [8] (HepG2, 10^−6 g/ml), the “Inhibitory rate, sensitivity class” value was “insensitive (<30% means insensitive)”.
As for `O=C(c1ccccc1)c1ccc(O)cc1O` [2,4-dihydroxybenzophenone], the Inhibitory rate % in experiment [1] (ECV304, 10^−4 g/ml) worked out at 96.17%; in [1] (ECV304, 10^−5 g/ml), 73.12%; in [1] (ECV304, 10^−6 g/ml), 45.37%; in the experiment with MCF7 (MCF7, 10^−4 g/ml) it was 87.60%; in the experiment with MCF7 (MCF7, 10^−5 g/ml) it was 68.62%; with MCF7 (MCF7, 10^−6 g/ml), 28.57%. For the same molecule, the Inhibitory rate % in experiment [2] (U251, 10^−4 g/ml) came to 85.31%; in [2] (U251, 10^−5 g/ml) it was 67.25%; in experiment [2] (U251, 10^−6 g/ml), 31.21%; in experiment [3] (MCG804, 10^−4 g/ml), 92.54%; in experiment [3] (MCG804, 10^−5 g/ml) it was 86.35%; in [3] (MCG804, 10^−6 g/ml), 41.35%. The Inhibitory rate % in experiment [4] (PC84045, 10^−4 g/ml) is on record as 92.65%; in [4] (PC84045, 10^−5 g/ml), 89.88%; in [4] (PC84045, 10^−6 g/ml), 44.39%; in [5] (10^−4 g/ml), 95.65%; in experiment [5] (10^−5 g/ml) it was 48.96%; in experiment [5] (10^−6 g/ml) it was 37.32%. In addition, the Inhibitory rate % was 93.80% in [6]; 93.58% in [7] (10^−4 g/ml); 62.30% in [7] (10^−5 g/ml); 32.56% in experiment [7] (10^−6 g/ml); 94.78% in experiment [8] (HepG2, 10^−4 g/ml); 66.74% in experiment [8] (HepG2, 10^−5 g/ml). In [8] (HepG2, 10^−6 g/ml), this molecule returned an Inhibitory rate % of 58.63%. In addition, the “Inhibitory rate, sensitivity class” value in experiment [6] (10^−5 g/ml) and in experiment [6] (10^−6 g/ml) was “insensitive (<30% means insensitive)” in each case.
As for `CCCOC(=O)c1cc(O)c(O)c(O)c1` [Propyl gallate, propyl 3,4,5-trihydroxybenzoate, reference compound], the HPV16/18 with HPV16/18 is given as 0 copy/ml. Also, the “HPV 6/11 Virus” value in the experiment on HPV 6/11 Virus was 0 copy/ml.
